Key:
MDA-MB-436 [1] = conditions: 72 h
Method in brief: (§1)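 EC50 is the value from a fitted percent-inhibition dose-response curve, censored at the highest concentration, and rows with zero drug sensitivity score were not kept. The underlying assay seeded breast cancer cell lines in 20 µl onto 384-well plates pre-loaded with compound in 5 µl medium for 72 h. Viability was then read by CellTiter-Blue fluorescence at 560/590 nm after 2 h at 37 °C, with each plate normalised to vehicle and a positive kill control.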

HCC1599 [2] = conditions: 72 h
Method in brief: as §1

CAL-120 [3] = conditions: 72 h
Method in brief: as §1

MFM-223 [4] = conditions: 72 h
Method in brief: as §1

HCC1143 [5] = conditions: 72 h
Method in brief: as §1

BT-549 [6] = conditions: 72 h
Method in brief: as §1

CAL-51 = experiment: normalised viability (% of control), CellTiter-Blue; higher = more viable cells (100 = DMSO, 0 = benzethonium chloride kill control); conditions: incubation time: 72 h
Protocol: (§2)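 DSRT, CellTiter-Blue viability, 72 h incubation. Signal is normalised to DMSO and benzethonium chloride controls. Value is the normalised response at dose 1.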

Hs578T = experiment: as above; conditions: incubation time: 72 h
Protocol: as §2

DU-4475 = experiment: as above; conditions: incubation time: 72 h
Protocol: as §2

MDA-MB-453 = experiment: as above; conditions: incubation time: 72 h
Protocol: as §2

MDA-MB-231 = experiment: as above; conditions: incubation time: 72 h
Protocol: as §2

MDA-MB-468 = experiment: as above; conditions: incubation time: 72 h
Protocol: as §2

MDA-MB-436 [7] = experiment: as above; conditions: incubation time: 72 h
Protocol: as §2

HCC1599 [8] = experiment: as above; conditions: incubation time: 72 h
Protocol: as §2

CAL-148 = experiment: as above; conditions: incubation time: 72 h
Protocol: as §2

CAL-120 [9] = experiment: as above; conditions: incubation time: 72 h
Protocol: as §2

HDQ-P1 = experiment: as above; conditions: incubation time: 72 h
Protocol: as §2

CAL-85-1 [10] = experiment: as above; conditions: incubation time: 72 h
Protocol: as §2

HCC1937 = experiment: as above; conditions: incubation time: 72 h
Protocol: as §2

MFM-223 [11] = experiment: as above; conditions: incubation time: 72 h
Protocol: as §2

HCC1143 [12] = experiment: as above; conditions: incubation time: 72 h
Protocol: as §2

BT-549 [13] = experiment: as above; conditions: incubation time: 72 h
Protocol: as §2

BT-474 = experiment: as above; conditions: incubation time: 72 h
Protocol: as §2

SK-BR-3 = experiment: as above; conditions: incubation time: 72 h
Protocol: as §2

CAL-85-1 [14] = experiment: drug sensitivity score (DSS), CellTiter-Glo (DSS (AUC-based score)); higher = stronger drug effect (viability inhibition or cytotoxicity); extreme values may be limits of the assay; conditions: incubation time: 72 h
Method in brief: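 The area under the fitted dose-response curve was used to calculate the drug sensitivity score. Cells from breast cancer lines were incubated for 72 h in 384-well plates with compound at 5 concentrations spaced 10-fold over a 10,000-fold range specific to each compound. Plates were read for CellTox Green and then CellTiter-Glo, and normalised to 0.1 % DMSO and a positive kill control.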

Structure (SMILES) | EC50, CellTiter-Blue viability (MDA-MB-436 [1]) [nM] | EC50, CellTiter-Blue viability (HCC1599 [2]) [nM] | EC50, CellTiter-Blue viability (CAL-120 [3]) [nM] | EC50, CellTiter-Blue viability (MFM-223 [4]) [nM] | EC50, CellTiter-Blue viability (HCC1143 [5]) [nM] | EC50, CellTiter-Blue viability (BT-549 [6]) [nM] | normalised viability (CAL-51; 1 nM) [%] | normalised viability (Hs578T; 1 nM) [%] | normalised viability (DU-4475; 1 nM) [%] | normalised viability (MDA-MB-453; 1 nM) [%] | normalised viability (MDA-MB-231; 1 nM) [%] | normalised viability (MDA-MB-468; 1 nM) [%] | normalised viability (MDA-MB-436 [7]; 1 nM) [%] | normalised viability (HCC1599 [8]; 1 nM) [%] | normalised viability (CAL-148; 1 nM) [%] | normalised viability (CAL-120 [9]; 1 nM) [%] | normalised viability (HDQ-P1; 1 nM) [%] | normalised viability (CAL-85-1 [10]; 1 nM) [%] | normalised viability (HCC1937; 1 nM) [%] | drug sensitivity score (CAL-85-1 [14]) | also measured
Cc1c(CN2CCN(C(=O)[C@H](C)O)CC2)sc2c(N3CCOCC3)nc(-c3cnc(N)nc3)nc12 [GDC-0980] | 783 | 103 | 181 | 139 | 306 | 386 | 101 | 102 | 104 | 96.5 | 96.6 | 99.6 | 84.5 | 95.5 | 106 | 96.3 | 95.9 | 83.5 | 88.1 | 11.8 | normalised viability (MFM-223 [11]; 1 nM): 96.8%; normalised viability (HCC1143 [12]; 1 nM): 94.9%; normalised viability (BT-549 [13]; 1 nM): 91.7%; normalised viability (BT-474; 1 nM): 103%; normalised viability (SK-BR-3; 1 nM): 92.2%
C[C@]12O[C@H](C[C@]1(O)CO)n1c3ccccc3c3c4c(c5c6ccccc6n2c5c31)CNC4=O [Lestaurtinib] | 202 | 201 | 65.5 | 133 | 151 | 672 | – | – | – | – | – | – | – | – | – | – | – | – | – | 4.38 | normalised viability (CAL-51; 0.1 nM): 115%; normalised viability (Hs578T; 0.1 nM): 118%; normalised viability (DU-4475; 0.1 nM): 110%; normalised viability (MDA-MB-453; 0.1 nM): 113%; normalised viability (MDA-MB-231; 0.1 nM): 115%; normalised viability (MDA-MB-468; 0.1 nM): 126%; normalised viability (MDA-MB-436 [7]; 0.1 nM): 126%; normalised viability (HCC1599 [8]; 0.1 nM): 109%; normalised viability (CAL-148; 0.1 nM): 118%; normalised viability (CAL-120 [9]; 0.1 nM): 101%; normalised viability (HDQ-P1; 0.1 nM): 113%; normalised viability (CAL-85-1 [10]; 0.1 nM): 100%; normalised viability (HCC1937; 0.1 nM): 96.4%; normalised viability (MFM-223 [11]; 0.1 nM): 107%; normalised viability (HCC1143 [12]; 0.1 nM): 107%; normalised viability (BT-549 [13]; 0.1 nM): 120%; normalised viability (BT-474; 0.1 nM): 100%; normalised viability (SK-BR-3; 0.1 nM): 97.7%
O=C1c2c(O)ccc(O)c2C(=O)c2c(NCCNCCO)ccc(NCCNCCO)c21 [Mitoxantrone] | 684 | 52.1 | 15.9 | 522 | 11.8 | 350 | – | – | – | – | – | – | – | – | – | – | – | – | – | 0 | normalised viability (CAL-51; 0.1 nM): 109%; normalised viability (Hs578T; 0.1 nM): 93.6%; normalised viability (DU-4475; 0.1 nM): 102%; normalised viability (MDA-MB-453; 0.1 nM): 90.6%; normalised viability (MDA-MB-231; 0.1 nM): 87.4%; normalised viability (MDA-MB-468; 0.1 nM): 90.7%; normalised viability (MDA-MB-436 [7]; 0.1 nM): 121%; normalised viability (HCC1599 [8]; 0.1 nM): 92.1%; normalised viability (CAL-148; 0.1 nM): 108%; normalised viability (CAL-120 [9]; 0.1 nM): 74.6%; normalised viability (HDQ-P1; 0.1 nM): 101%; normalised viability (CAL-85-1 [10]; 0.1 nM): 80.5%; normalised viability (HCC1937; 0.1 nM): 92.5%; normalised viability (MFM-223 [11]; 0.1 nM): 84.2%; normalised viability (HCC1143 [12]; 0.1 nM): 79.2%; normalised viability (BT-549 [13]; 0.1 nM): 90.5%; normalised viability (BT-474; 0.1 nM): 75.9%; normalised viability (SK-BR-3; 0.1 nM): 108%
Nc1ccccc1NC(=O)c1ccc(CNc2nccc(-c3cccnc3)n2)cc1 [Mocetinostat] | 2020 | 873 | 75.7 | 4200 | 1770 | 2620 | 93.6 | 113 | 91.3 | 92.5 | 110 | 92 | 99.2 | 92.2 | 107 | 81.7 | 84.2 | 91.8 | 90.8 | 6.32 | normalised viability (MFM-223 [11]; 1 nM): 91.2%; normalised viability (HCC1143 [12]; 1 nM): 91.1%; normalised viability (BT-549 [13]; 1 nM): 117%; normalised viability (BT-474; 1 nM): 107%; normalised viability (SK-BR-3; 1 nM): 93%
